We go through twelve molecules from publication PMC11421834 (European journal of medicinal chemistry, 2024).

The first experiment deals with TRKC (Homo sapiens, UniProt Q16288). Nature of the experiment: TRKC enzyme assay, single concentration. Conditions: Percentage inhibition at 0.5 μM (n = 2); ATP 10 μM.
TRKC, sequence (Q16288 32-839): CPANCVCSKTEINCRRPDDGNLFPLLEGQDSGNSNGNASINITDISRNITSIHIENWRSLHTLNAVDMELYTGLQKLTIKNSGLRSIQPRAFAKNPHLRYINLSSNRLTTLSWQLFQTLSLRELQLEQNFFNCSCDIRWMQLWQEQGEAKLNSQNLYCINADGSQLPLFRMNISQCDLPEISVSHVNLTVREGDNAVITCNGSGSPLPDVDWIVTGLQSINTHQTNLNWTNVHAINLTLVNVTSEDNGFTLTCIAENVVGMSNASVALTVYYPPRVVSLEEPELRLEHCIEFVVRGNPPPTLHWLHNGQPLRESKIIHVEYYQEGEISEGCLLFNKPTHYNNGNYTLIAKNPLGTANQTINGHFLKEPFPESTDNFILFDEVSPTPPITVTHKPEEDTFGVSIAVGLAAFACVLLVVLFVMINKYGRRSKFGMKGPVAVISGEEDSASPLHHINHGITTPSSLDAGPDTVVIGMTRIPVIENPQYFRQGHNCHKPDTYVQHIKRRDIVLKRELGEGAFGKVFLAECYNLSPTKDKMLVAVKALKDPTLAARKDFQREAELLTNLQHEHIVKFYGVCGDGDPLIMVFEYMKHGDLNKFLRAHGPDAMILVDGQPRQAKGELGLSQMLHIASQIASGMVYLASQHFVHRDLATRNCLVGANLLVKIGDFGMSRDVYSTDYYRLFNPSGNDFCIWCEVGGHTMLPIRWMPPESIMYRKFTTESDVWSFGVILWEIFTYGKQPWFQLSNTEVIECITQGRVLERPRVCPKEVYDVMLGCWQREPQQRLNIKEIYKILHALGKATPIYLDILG
Take “3-ethoxy-N-[(3Z)-3-[(1H-imidazole-5-yl)methylidene]-2-oxo-2,3-dihydro-1H-indol-5-yl]thiophene-2-carboxamide [Compound 120]”: the “TRKC (% Inh.)” value was determined as 92%.

For the molecule “(3Z)-3-(1H-pyrazol-5-ylmethylidene)-2,3-dihydro-1H-indol-2-one [Compound 8]”, the “TRKC (% Inh.)” value worked out at 92%.

The test system of a further experiment is over 400 kinases. Kind of experiment: KinomeSCAN kinome profiling at 1 μM. It counts as binding. Conditions: KinomeSCAN at 1 μM across over 400 kinases.
Consider `O=C1Cc2cc(NC(=O)c3cc4sccc4s3)ccc2N1` [Compound 111], for which the “>90: Number of kinases inhibited above 90%” value came to 15.

Take `O=C1Nc2ccc(NC(=O)c3ccccc3)cc2/C1=C/c1cnc[nH]1` [Compound 73, N-[(3Z)-3-(1H-imidazole-5-ylmethylidene)-2-oxo-2,3-dihydro-1H-indol-5-yl]benzamide]: the “>90: Number of kinases inhibited above 90%” value was 9.

For `COc1ccccc1C(=O)Nc1ccc2c(c1)/C(=C/c1ncc[nH]1)C(=O)N2` [Compound 97, N-[(3Z)-3-(1H-imidazole-2-ylmethylidene)-2-oxo-2,3-dihydro-1H-indol-5-yl]-2-methoxybenzamide], the “>90: Number of kinases inhibited above 90%” value is reported as 7.

As to `O=C1Nc2ccc(NC(=O)c3ccccc3)cc2/C1=C/c1ccc[nH]1` [Compound 72, N-[(3Z)-2-oxo-3-(1H-pyrrol-2-ylmethylidene)-2,3-dihydro-1H-indol-5-yl]benzamide], the “>90: Number of kinases inhibited above 90%” value was found to be 10.

Consider `COc1ccc2c(c1)/C(=C/c1cnc[nH]1)C(=O)N2` [Compound 1, (3Z)-3-[(1H-imidazole-5-yl)methylidene]-5-methoxy-2,3-dihydro-1H-indol-2-one], for which the “>90: Number of kinases inhibited above 90%” value is given as 15.

As for `Cc1nc[nH]c1/C=C1\C(=O)Nc2ccc(NC(=O)c3ccccc3)cc21` [Compound 128, N-[(3Z)-3-[(4-methyl-1H-imidazole-5-yl)methylidene]-2-oxo-2,3-dihydro-1H-indol-5-yl]benzamide], the “>90: Number of kinases inhibited above 90%” value is 11.

Take `CC(=O)c1ccc2c(c1)/C(=C/c1ccc[nH]1)C(=O)N2` [Compound 27, (3Z)-5-acetyl-3-(1H-pyrrol-2-ylmethylidene)-2,3-dihydro-1H-indol-2-one]: the “>90: Number of kinases inhibited above 90%” value is recorded as 62.

As to `O=C1Nc2ccc(C(=O)c3ccccc3)cc2/C1=C/c1cnc[nH]1` [Compound 44, (3Z)-5-benzoyl-3-(1H-imidazole-5-ylmethylidene)-2,3-dihydro-1H-indol-2-one], the “>90: Number of kinases inhibited above 90%” value is 15.

In the case of `O=C1Nc2ccc(NC(=O)c3ccccc3)cc2/C1=C/c1ncc[nH]1` [Compound 74, N-[(3Z)-3-(1H-imidazole-2-ylmethylidene)-2-oxo-2,3-dihydro-1H-indol-5-yl]benzamide], the “>90: Number of kinases inhibited above 90%” value turned out to be 11.

Staying with this experiment, now noted: KinomeSCAN at 1 μM, selectivity score.
As to `CC(=O)c1ccc2c(c1)/C(=C/c1ccc[nH]1)C(=O)N2` [Compound 27, (3Z)-5-acetyl-3-(1H-pyrrol-2-ylmethylidene)-2,3-dihydro-1H-indol-2-one], the “S(10)” value stood at 0.154.

The target of another experiment is T1, FLT3 (Homo sapiens, UniProt P36888).
T1 sequence (P36888 27-993): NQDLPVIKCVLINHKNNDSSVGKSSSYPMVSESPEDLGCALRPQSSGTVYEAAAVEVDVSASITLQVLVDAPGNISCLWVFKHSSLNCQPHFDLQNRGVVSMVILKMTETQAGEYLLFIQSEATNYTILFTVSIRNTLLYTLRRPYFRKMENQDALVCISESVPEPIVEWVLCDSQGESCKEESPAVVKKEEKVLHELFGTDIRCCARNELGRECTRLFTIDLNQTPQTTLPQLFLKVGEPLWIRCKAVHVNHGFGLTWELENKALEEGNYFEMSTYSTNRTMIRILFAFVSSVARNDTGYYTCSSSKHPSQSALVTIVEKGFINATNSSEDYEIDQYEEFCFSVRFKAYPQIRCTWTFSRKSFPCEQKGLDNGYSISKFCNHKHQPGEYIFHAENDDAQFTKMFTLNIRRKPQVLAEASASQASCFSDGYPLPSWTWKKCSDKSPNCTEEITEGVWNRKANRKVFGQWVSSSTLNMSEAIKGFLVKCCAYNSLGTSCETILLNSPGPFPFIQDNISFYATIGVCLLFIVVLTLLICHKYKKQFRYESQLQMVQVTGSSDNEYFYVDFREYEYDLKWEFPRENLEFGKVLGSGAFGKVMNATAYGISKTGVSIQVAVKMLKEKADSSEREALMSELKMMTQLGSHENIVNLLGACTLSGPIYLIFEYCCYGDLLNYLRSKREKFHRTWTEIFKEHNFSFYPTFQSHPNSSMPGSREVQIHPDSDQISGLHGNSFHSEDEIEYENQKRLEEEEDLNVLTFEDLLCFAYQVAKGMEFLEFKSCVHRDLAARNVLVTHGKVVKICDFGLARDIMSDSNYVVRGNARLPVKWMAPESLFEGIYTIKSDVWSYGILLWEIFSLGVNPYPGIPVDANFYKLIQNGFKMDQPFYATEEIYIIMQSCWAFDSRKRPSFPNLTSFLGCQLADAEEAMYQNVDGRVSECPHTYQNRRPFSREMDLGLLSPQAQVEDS
Nature of the experiment: FLT3 enzyme assay, single concentration. Conditions: read-out: FLT3 (% Inh.).
In the case of `COc1ccsc1C(=O)Nc1ccc2c(c1)/C(=C/c1cnc[nH]1)C(=O)N2` [Compound 119, (Z)-N-(3-((1H-imidazole-5-yl)methylene)-2-oxoindolin-5-yl)-3-methoxythiophene-2-carboxamide], the inhibition at 0.5 µM is 80%.
